How the values were obtained:
Trichosporon asahii [1] = assay: microbe, parasite or virus in culture; type: functional; conditions: Trichosporon asahii, 1188, 48 h
Description: Antifungal activity against Trichosporon asahii 1188 after 48 hrs by modified standard CSLI M27-A2 method

Candida albicans [2] = assay: microbe, parasite or virus in culture; type: functional; conditions: ATCC 44859, 24 h
Description: Antifungal activity against Candida albicans ATCC 44859 after 24 hrs by modified standard CSLI M27-A2 method

Staphylococcus aureus [3] = assay: microbe, parasite or virus in culture; type: functional; conditions: CCM 4516/08, 24 h
Description: Antibacterial activity against Staphylococcus aureus CCM 4516/08 after 24 hrs by microdilution broth method

[4] = system: Trichophyton mentagrophytes; assay: microbe, parasite or virus in culture; type: functional; conditions: Trichophyton mentagrophytes, 445, 120 h
Description: Antifungal activity against Trichophyton mentagrophytes 445 after 120 hrs by modified standard CSLI M27-A2 method

Pichia kudriavzevii [5] = assay: Antifungal activity against Candida krusei E28 after 24 hrs by modified standard CSLI M27-A2 method; type: functional; conditions: E28, 24 h
Trichosporon asahii [6] = assay: microbe, parasite or virus in culture; type: functional; conditions: Trichosporon asahii, 1188, 24 h
Description: Antifungal activity against Trichosporon asahii 1188 after 24 hrs by modified standard CSLI M27-A2 method

Klebsiella pneumoniae [7] = assay: microbe, parasite or virus in culture; type: functional; conditions: D 11750/08, 24 h
Description: Antibacterial activity against Klebsiella pneumoniae D 11750/08 after 24 hrs by microdilution broth method

Aspergillus fumigatus [8] = assay: microbe, parasite or virus in culture; type: functional; conditions: Aspergillus fumigatus, 231, 24 h
Description: Antifungal activity against Aspergillus fumigatus 231 after 24 hrs by modified standard CSLI M27-A2 method

Trichosporon asahii [9] = assay: Fungicidal activity against Trichosporon asahii 1188 after 48 hrs by modified standard CSLI M27-A2 method; type: functional; conditions: Trichosporon asahii, 1188, 48 h
Aspergillus fumigatus [10] = assay: microbe, parasite or virus in culture; type: functional; conditions: Aspergillus fumigatus, 231, 48 h
Description: Antifungal activity against Aspergillus fumigatus 231 after 48 hrs by modified standard CSLI M27-A2 method

Lichtheimia corymbifera [11] = assay: microbe, parasite or virus in culture; type: functional; conditions: Lichtheimia corymbifera, 272, 24 h
Description: Antifungal activity against Absidia corymbifera 272 after 24 hrs by modified standard CSLI M27-A2 method

Nakaseomyces glabratus [12] = assay: Antifungal activity against Candida glabrata 20/I after 48 hrs by modified standard CSLI M27-A2 method; type: functional
Candida albicans [13] = assay: microbe, parasite or virus in culture; type: functional; conditions: ATCC 44859, 48 h
Description: Antifungal activity against Candida albicans ATCC 44859 after 48 hrs by modified standard CSLI M27-A2 method

Candida tropicalis [14] = assay: microbe, parasite or virus in culture; type: functional; conditions: Candida tropicalis, 156, 24 h
Description: Antifungal activity against Candida tropicalis 156 after 24 hrs by modified standard CSLI M27-A2 method

Lichtheimia corymbifera [15] = assay: Fungicidal activity against Absidia corymbifera 272 after 48 hrs by modified standard CSLI M27-A2 method; type: functional; conditions: Lichtheimia corymbifera, 272, 48 h
Staphylococcus aureus [16] = assay: Bactericidal activity against Staphylococcus aureus H 5996/08 after 48 hrs by microdilution broth method; type: functional; conditions: H 5996/08, 48 h, read-out: MBC>99.9
Enterococcus sp. [17] = assay: microbe, parasite or virus in culture; type: functional; conditions: J 14365/08, 48 h
Description: Antibacterial activity against Enterococcus sp. J 14365/08 after 48 hrs by microdilution broth method

Lichtheimia corymbifera [18] = assay: microbe, parasite or virus in culture; type: functional; conditions: Lichtheimia corymbifera, 272, 48 h
Description: Antifungal activity against Absidia corymbifera 272 after 48 hrs by modified standard CSLI M27-A2 method

[19] = system: Staphylococcus epidermidis; assay: microbe, parasite or virus in culture; type: functional; conditions: H 6966/08, 48 h
Description: Antibacterial activity against Staphylococcus epidermidis H 6966/08 after 48 hrs by microdilution broth method

Staphylococcus aureus [20] = assay: microbe, parasite or virus in culture; type: functional; conditions: CCM 4516/08, 48 h
Description: Antibacterial activity against Staphylococcus aureus CCM 4516/08 after 48 hrs by microdilution broth method

Staphylococcus aureus [21] = assay: microbe, parasite or virus in culture; type: functional; conditions: H 5996/08, 24 h
Description: Antibacterial activity against Staphylococcus aureus H 5996/08 after 24 hrs by microdilution broth method

Pseudomonas aeruginosa [22] = assay: Bactericidal activity against Pseudomonas aeruginosa CCM 1961 after 120 hrs by microdilution broth method; type: functional; conditions: CCM 1961, 120 h, read-out: MBC>99.9
Candida tropicalis [23] = assay: Fungicidal activity against Candida tropicalis 156 after 48 hrs by modified standard CSLI M27-A2 method; type: functional; conditions: Candida tropicalis, 156, 48 h
Candida tropicalis [24] = assay: microbe, parasite or virus in culture; type: functional; conditions: Candida tropicalis, 156, 48 h
Description: Antifungal activity against Candida tropicalis 156 after 48 hrs by modified standard CSLI M27-A2 method

Pseudomonas aeruginosa [25] = assay: microbe, parasite or virus in culture; type: functional; conditions: CCM 1961, 120 h
Description: Antibacterial activity against Pseudomonas aeruginosa CCM 1961 after 120 hrs by microdilution broth method

[26] = system: Staphylococcus epidermidis; assay: microbe, parasite or virus in culture; type: functional; conditions: H 6966/08, 24 h
Description: Antibacterial activity against Staphylococcus epidermidis H 6966/08 after 24 hrs by microdilution broth method

Klebsiella pneumoniae [27] = assay: microbe, parasite or virus in culture; type: functional; conditions: J 14368/08, 24 h
Description: Antibacterial activity against Klebsiella pneumoniae J 14368/08 after 24 hrs by microdilution broth method

Nakaseomyces glabratus [28] = assay: Fungicidal activity against Candida glabrata 20/I after 48 hrs by modified standard CSLI M27-A2 method; type: functional
Staphylococcus aureus [29] = assay: microbe, parasite or virus in culture; type: functional; conditions: H 5996/08, 48 h
Description: Antibacterial activity against Staphylococcus aureus H 5996/08 after 48 hrs by microdilution broth method

Enterococcus sp. [30] = assay: Bactericidal activity against Enterococcus sp. J 14365/08 after 48 hrs by microdilution broth method; type: functional; conditions: J 14365/08, 48 h, read-out: MBC>99.9
Pichia kudriavzevii [31] = assay: Antifungal activity against Candida krusei E28 after 48 hrs by modified standard CSLI M27-A2 method; type: functional; conditions: E28, 48 h
Klebsiella pneumoniae [32] = assay: microbe, parasite or virus in culture; type: functional; conditions: D 11750/08, 48 h
Description: Antibacterial activity against Klebsiella pneumoniae D 11750/08 after 48 hrs by microdilution broth method

[33] = system: Trichophyton mentagrophytes; assay: Fungicidal activity against Trichophyton mentagrophytes 445 after 120 hrs by modified standard CSLI M27-A2 method; type: functional; conditions: Trichophyton mentagrophytes, 445, 120 h
Klebsiella pneumoniae [34] = assay: Bactericidal activity against Klebsiella pneumoniae J 14368/08 after 48 hrs by microdilution broth method; type: functional; conditions: J 14368/08, 48 h, read-out: MBC>99.9
[35] = system: Staphylococcus epidermidis; assay: Bactericidal activity against Staphylococcus epidermidis H 6966/08 after 48 hrs by microdilution broth method; type: functional; conditions: H 6966/08, 48 h, read-out: MBC>99.9
Klebsiella pneumoniae [36] = assay: microbe, parasite or virus in culture; type: functional; conditions: J 14368/08, 48 h
Description: Antibacterial activity against Klebsiella pneumoniae J 14368/08 after 48 hrs by microdilution broth method

Klebsiella pneumoniae [37] = assay: Bactericidal activity against Klebsiella pneumoniae D 11750/08 after 24 hrs by microdilution broth method; type: functional; conditions: D 11750/08, 24 h, read-out: MBC>99.9
Pseudomonas aeruginosa [38] = assay: microbe, parasite or virus in culture; type: functional; conditions: CCM 1961, 72 h
Description: Antibacterial activity against Pseudomonas aeruginosa CCM 1961 after 72 hrs by microdilution broth method

Enterococcus sp. [39] = assay: microbe, parasite or virus in culture; type: functional; conditions: J 14365/08, 24 h
Description: Antibacterial activity against Enterococcus sp. J 14365/08 after 24 hrs by microdilution broth method

[40] = system: Trichophyton mentagrophytes; assay: microbe, parasite or virus in culture; type: functional; conditions: Trichophyton mentagrophytes, 445, 72 h
Description: Antifungal activity against Trichophyton mentagrophytes 445 after 72 hrs by modified standard CSLI M27-A2 method

Escherichia coli [41] = assay: microbe, parasite or virus in culture; type: functional; conditions: CCM 4517, 48 h
Description: Antibacterial activity against Escherichia coli CCM 4517 after 48 hrs by microdilution broth method

Pichia kudriavzevii [42] = assay: Fungicidal activity against Candida krusei E28 after 48 hrs by modified standard CSLI M27-A2 method; type: functional; conditions: E28, 48 h
Escherichia coli [43] = assay: Bactericidal activity against Escherichia coli CCM 4517 after 48 hrs by microdilution broth method; type: functional; conditions: CCM 4517, 48 h, read-out: MBC>99.9
Escherichia coli [44] = assay: microbe, parasite or virus in culture; type: functional; conditions: CCM 4517, 24 h
Description: Antibacterial activity against Escherichia coli CCM 4517 after 24 hrs by microdilution broth method

[45] = Cytotoxicity against CHOK1 cells after 24 hrs by MTT assay; type: ADME, cell-based; conditions: Cricetulus griseus, CHO-K1, 24 h
Candida albicans [46] = assay: Fungicidal activity against Candida albicans ATCC 44859 after 48 hrs by modified standard CSLI M27-A2 method; type: functional; conditions: ATCC 44859, 48 h
Aspergillus fumigatus [47] = assay: Fungicidal activity against Aspergillus fumigatus 231 after 48 hrs by modified standard CSLI M27-A2 method; type: functional; conditions: Aspergillus fumigatus, 231, 48 h
Staphylococcus aureus [48] = assay: Bactericidal activity against Staphylococcus aureus CCM 4516/08 after 48 hrs by microdilution broth method; type: functional; conditions: CCM 4516/08, 48 h, read-out: MBC>99.9
Nakaseomyces glabratus [49] = assay: Antifungal activity against Candida glabrata 20/I after 24 hrs by modified standard CSLI M27-A2 method; type: functional

CCCCCCCCCCCCCC[N+](C)(C)Cc1ccccc1
0.98 µM: MIC95 (Staphylococcus aureus [3]) | MIC95 [19] | MIC95 (Staphylococcus aureus [20]) | MIC95 [26] | MBC [35]
62.5 µM: MBC (Pseudomonas aeruginosa [22])
24 µM: IC50 [45]
1.95 µM: MIC95 (Enterococcus sp. [17]) | MIC95 (Staphylococcus aureus [21]) | MIC95 (Staphylococcus aureus [29]) | MIC95 (Enterococcus sp. [39])
7.81 µM: MIC (Candida albicans [2]) | MIC95 (Klebsiella pneumoniae [7]) | MIC (Aspergillus fumigatus [8]) | MIC (Nakaseomyces glabratus [12]) | MIC (Candida albicans [13]) | MIC95 (Klebsiella pneumoniae [27]) | MBC (Enterococcus sp. [30]) | MIC95 (Klebsiella pneumoniae [32]) | MBC (Klebsiella pneumoniae [34]) | MIC95 (Klebsiella pneumoniae [36]) | MBC (Klebsiella pneumoniae [37]) | MIC95 (Escherichia coli [41]) | MBC (Escherichia coli [43]) | MIC95 (Escherichia coli [44]) | MIC (Nakaseomyces glabratus [49])
31.2 µM: MIC (Trichosporon asahii [1]) | MIC (Trichosporon asahii [6]) | MIC (Lichtheimia corymbifera [11]) | MIC (Lichtheimia corymbifera [18]) | MIC95 (Pseudomonas aeruginosa [25])
3.91 µM: MIC (Pichia kudriavzevii [5]) | MIC (Candida tropicalis [14]) | MBC (Staphylococcus aureus [16]) | MIC (Candida tropicalis [24]) | MIC (Pichia kudriavzevii [31]) | MBC (Staphylococcus aureus [48])
125 µM: MFC (Trichosporon asahii [9]) | MFC (Lichtheimia corymbifera [15]) | MFC (Candida tropicalis [23]) | MFC (Nakaseomyces glabratus [28]) | MFC (Pichia kudriavzevii [42]) | MFC (Candida albicans [46]) | MFC (Aspergillus fumigatus [47])
15.6 µM: MIC [4] | MIC (Aspergillus fumigatus [10]) | MFC [33] | MIC95 (Pseudomonas aeruginosa [38]) | MIC [40]

Source: ChEMBL document CHEMBL3352489, “6-Hydroxyquinolinium salts differing in the length of alkyl side-chain: synthesis and antimicrobial activity” (Bioorg Med Chem Lett, 2014)
